Measured values: patent publication US20240300932A1, “N-PHENYLIMINE DERIVATIVE AND PREPARATION METHOD AND USE THEREOF” (Guizhou University, priority 2023, published 2024)

Legend:
Experiment in all cases: Post-emergence herbicidal activity test (stem and leaf spray, pot culture)
Format in all cases: in vivo
Settings in all cases: 3 weeks after spraying
Amaranthus retroflexus = tested on: Amaranthus retroflexus
Protocol: (§1) The weeds were cultivated in a 180 mm×140 mm plastic nutrient pot by a pot-culture method, placed in an enamel tray, and the plastic nutrient pots were filled with surface soil (⅘ of a depth) collected from a farmland and air-dried and sieved, and a soil humidity was controlled at 20% in the initial stage. Weed seeds with plump and uniform grains were selected, soaked in warm water at 25° C. for 6 h, and germinated in a biochemical incubator (dark) at 28° C. The freshly exposed weed seeds were evenly placed on the soil surface, and then covered with 0.5 cm to 1 cm of soil according to the size of the seeds. The weeds are cultivated in a controlled sunlight greenhouse at 20° C. to 30° C., under natural light, and a relative humidity of 57% to 72%. The soil was loam, including 1.63% of organic matters, with a pH value of 7, 84.3 mg/kg of alkaline nitrogen, 38.5 mg/kg of available phosphorus, and 82.1 mg/kg of available potassium.
(§2) Each treatment was repeated 2 times, each treatment included 12 pots, and 20 weed seeds were sown in each pot. Pesticide was applied in the test for 1 time in total. When the weeds grew to 1.5- to 2-leaf stage, thinning was conducted, with 10 weeds in each pot, and 30 weeds were kept in each treatment.
(§3) The cultivated weeds were placed on trays with an area of 0.1 m^2, and stems and leaves were sprayed with a sprayer. After applying a pesticide, the pesticide applied weeds were moved into a greenhouse for routine cultivation.
(§4) 2 weeks after sowing, the test plants were treated at the 2- to 3-leaf stage: the compounds of the present disclosure for testing were dissolved in acetone separately, and added with Tween 80, an emulsifiable oil of 1.5 liters/ha methyl oleate was added as a synergist, and an obtained mixture was diluted with certain water to a certain concentration solution. The solution was sprayed onto the plants using a spray tower. After spraying, the weeds were cultivated in the greenhouse for 3 weeks, and the experimental effects on the weeds were counted. The effective concentrations of the compounds were 10 g/mu, 5 g/mu, and 2.5 g/mu, the experiment was repeated three times, and an average result was taken.
(§5) The activity level criteria for plant destruction (i.e. growth control rate) are as follows: • Grade 5: the growth control rate is greater than or equal to 85%; • Grade 4: the growth control rate is greater than or equal to 60% and less than 85%; • Grade 3: the growth control rate is greater than or equal to 40% and less than 60%; • Grade 2: the growth control rate is greater than or equal to 20% and less than 40%; • Grade 1: the growth control rate is greater than or equal to 5% and less than 20%; and • Grade 0: the growth control rate is less than 5%.
(§6) The growth control rate is a fresh weight control rate.

Echinochloa crusgalli = tested on: Echinochloa crusgalli
Protocol: as §1, §2, §3, §4, §5, §6

Portulaca oleracea = tested on: Portulaca oleracea
Protocol: as §1, §2, §3, §4, §5, §6

Abutilon theophrasti = tested on: Abutilon theophrasti
Protocol: as §1, §2, §3, §4, §5, §6

Setaria viridis = tested on: Setaria viridis
Protocol: as §1, §2, §3, §4, §5, §6

Trifoliumre pensL. = tested on: Trifoliumre pensL.
Protocol: (1) Post-Emergence Stem and Leaf Spray Treatment: The weeds were cultivated in a 180 mm×140 mm plastic nutrient pot by a pot-culture method, placed in an enamel tray, and the plastic nutrient pots were filled with surface soil (⅘ of a depth) collected from a farmland and air-dried and sieved, and a soil humidity was controlled at 20% in the initial stage. Weed seeds with plump and uniform grains were selected, soaked in warm water at 25° C. for 6 h, and germinated in a biochemical incubator (dark) at 28° C. The freshly exposed weed seeds were evenly placed on the soil surface, and then covered with 0.5 cm to 1 cm of soil according to the size of the seeds. The weeds are cultivated in a controlled sunlight greenhouse at 20° C. to 30° C., under natural light, and a relative humidity of 57% to 72%. The soil was loam, including 1.63% of organic matters, with a pH value of 7, 84.3 mg/kg of alkaline nitrogen, 38.5 mg/kg of available phosphorus, and 82.1 mg/kg of available potassium. Each treatment was repeated 2 times, each treatment included 12 pots, and 20 weed seeds were sown in each pot. Pesticide was applied in the test for 1 time in total. When the weeds grew to 1.5- to 2-leaf stage, thinning was conducted, with 10 weeds in each pot, and 30 weeds were kept in each treatment. The cultivated weeds were placed on trays with an area of 0.1 m^2, and stems and leaves were sprayed with a sprayer. After applying a pesticide, the pesticide applied weeds were moved into a greenhouse for routine cultivation. 2 weeks after sowing, the test plants were treated at the 2- to 3-leaf stage: the compounds of the present disclosure for testing were dissolved in acetone separately, and added with Tween 80, an emulsifiable oil of 1.5 liters/ha methyl oleate was added as a synergist, and an obtained mixture was diluted with certain water to a certain concentration solution. The solution was sprayed onto the plants using a spray tower. After spraying, the weeds were cultivated in the greenhouse for 3 weeks, and the experimental effects on the weeds were counted. The effective concentrations of the compounds were 10 g/mu, 5 g/mu, and 2.5 g/mu, the experiment was repeated three times, and an average result was taken.

SMILES | Post-emergence herbicidal activity, A. retroflexus (grade) (Amaranthus retroflexus; dosage 2.5 g/mu) | Post-emergence herbicidal activity, A. retroflexus (grade) (Amaranthus retroflexus; dosage 5 g/mu) | Post-emergence herbicidal activity, A. retroflexus (grade) (Amaranthus retroflexus; dosage 10 g/mu) | Post-emergence herbicidal activity, E. crusgalli (grade) (Echinochloa crusgalli; dosage 2.5 g/mu) | Post-emergence herbicidal activity, E. crusgalli (grade) (Echinochloa crusgalli; dosage 5 g/mu) | Post-emergence herbicidal activity, E. crusgalli (grade) (Echinochloa crusgalli; dosage 10 g/mu) | Post-emergence herbicidal activity, P. oleracea (grade) (Portulaca oleracea; dosage 2.5 g/mu) | Post-emergence herbicidal activity, P. oleracea (grade) (Portulaca oleracea; dosage 5 g/mu) | Post-emergence herbicidal activity, P. oleracea (grade) (Portulaca oleracea; dosage 10 g/mu) | Post-emergence herbicidal activity, A. theophrasti (grade) (Abutilon theophrasti; dosage 2.5 g/mu) | Post-emergence herbicidal activity, A. theophrasti (grade) (Abutilon theophrasti; dosage 5 g/mu) | Post-emergence herbicidal activity, A. theophrasti (grade) (Abutilon theophrasti; dosage 10 g/mu) | Post-emergence herbicidal activity, S. viridis (grade) (Setaria viridis; dosage 2.5 g/mu) | Post-emergence herbicidal activity, S. viridis (grade) (Setaria viridis; dosage 5 g/mu) | Post-emergence herbicidal activity, S. viridis (grade) (Setaria viridis; dosage 10 g/mu) | Post-emergence herbicidal activity, Trifoliumre pensL. (grade) (Trifoliumre pensL.; dosage 2.5 g/mu) | Post-emergence herbicidal activity, Trifoliumre pensL. (grade) (Trifoliumre pensL.; dosage 5 g/mu) | Post-emergence herbicidal activity, Trifoliumre pensL. (grade) (Trifoliumre pensL.; dosage 10 g/mu)
O=C1C2=C(CCCC2)C(=O)N1c1cc(OCc2nc(-c3ccc(F)cc3F)no2)c(Cl)cc1F [Compound A6] | 5 (Grade 5: the growth control rate is greater than or equal to 85%) | 5 (Grade 5: the growth control rate is greater than or equal to 85%) | 5 (Grade 5: the growth control rate is greater than or equal to 85%) | 1 (Grade 1: the growth control rate is greater than or equal to 5% and less than 20%) | 2 (Grade 2: the growth control rate is greater than or equal to 20% and less than 40%) | 3 (Grade 3: the growth control rate is greater than or equal to 40% and less than 60%) | 4 (Grade 4: the growth control rate is greater than or equal to 60% and less than 85%) | 5 (Grade 5: the growth control rate is greater than or equal to 85%) | 5 (Grade 5: the growth control rate is greater than or equal to 85%) | 5 (Grade 5: the growth control rate is greater than or equal to 85%) | 5 (Grade 5: the growth control rate is greater than or equal to 85%) | 5 (Grade 5: the growth control rate is greater than or equal to 85%) | 2 (Grade 2: the growth control rate is greater than or equal to 20% and less than 40%) | 3 (Grade 3: the growth control rate is greater than or equal to 40% and less than 60%) | 4 (Grade 4: the growth control rate is greater than or equal to 60% and less than 85%) | 4 (Grade 4: the growth control rate is greater than or equal to 60% and less than 85%) | 5 (Grade 5: the growth control rate is greater than or equal to 85%) | 5 (Grade 5: the growth control rate is greater than or equal to 85%)
O=C1C2=C(CCCC2)C(=O)N1c1cc(OCc2nc(-c3ccc(Cl)cc3F)no2)c(Cl)cc1F [Compound A7] | 5 (Grade 5: the growth control rate is greater than or equal to 85%) | 5 (Grade 5: the growth control rate is greater than or equal to 85%) | 5 (Grade 5: the growth control rate is greater than or equal to 85%) | 1 (Grade 1: the growth control rate is greater than or equal to 5% and less than 20%) | 2 (Grade 2: the growth control rate is greater than or equal to 20% and less than 40%) | 3 (Grade 3: the growth control rate is greater than or equal to 40% and less than 60%) | 4 (Grade 4: the growth control rate is greater than or equal to 60% and less than 85%) | 5 (Grade 5: the growth control rate is greater than or equal to 85%) | 5 (Grade 5: the growth control rate is greater than or equal to 85%) | 5 (Grade 5: the growth control rate is greater than or equal to 85%) | 5 (Grade 5: the growth control rate is greater than or equal to 85%) | 5 (Grade 5: the growth control rate is greater than or equal to 85%) | 2 (Grade 2: the growth control rate is greater than or equal to 20% and less than 40%) | 3 (Grade 3: the growth control rate is greater than or equal to 40% and less than 60%) | 4 (Grade 4: the growth control rate is greater than or equal to 60% and less than 85%) | 4 (Grade 4: the growth control rate is greater than or equal to 60% and less than 85%) | 5 (Grade 5: the growth control rate is greater than or equal to 85%) | 5 (Grade 5: the growth control rate is greater than or equal to 85%)
